Patent US20100062994A1, “Adenosine Receptor Antagonists” (SANTARIS PHARMA A/S, priority 2006, published 2010)

Biological target: T1, A3 human recombinant receptor (Homo sapiens, UniProt P0DMS8)
T1 sequence (P0DMS8 1-318): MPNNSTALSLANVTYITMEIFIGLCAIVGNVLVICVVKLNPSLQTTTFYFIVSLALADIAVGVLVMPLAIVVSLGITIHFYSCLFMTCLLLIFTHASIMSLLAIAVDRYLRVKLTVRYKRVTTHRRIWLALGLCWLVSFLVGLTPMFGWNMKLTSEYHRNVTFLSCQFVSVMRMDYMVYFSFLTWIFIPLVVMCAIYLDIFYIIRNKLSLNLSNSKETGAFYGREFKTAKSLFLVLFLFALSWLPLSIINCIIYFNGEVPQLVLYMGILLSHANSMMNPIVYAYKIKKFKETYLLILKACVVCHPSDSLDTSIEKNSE
Experiment: AequoScreen adenosine A3 receptor assay, antagonist mode (luminescence, against reference agonist IB-MECA)
Type: cell-based
Conditions: AequoScreen cells expressing A3 human recombinant receptor and Gα16; inhibition of IB-MECA at EC80; duplicate determinations at 8 concentrations
Method: AequoScreen™ (Euroscreen, Belgium) cell lines expressing the A3 human recombinant receptor and the promiscuous G protein Gα16 were used throughout the study. AequoScreen™ cells were cultured following recommended conditions for at least one week prior to the test. The day before the test, cells were harvested with PBS-EDTA, washed and re-suspended in BSA-DMEM12 (Dulbecco's Modified Eagles Medium—Ham's F12 with 0.1% BSA). Suspended cells were then incubated at room temperature with coelenterazine h overnight. For agonist and antagonist testing, 50 μl of the cell suspension were injected onto 50 μl of the test compound or control in 96-well plates, and the resulting emission of light measured for the determination of cell activation. After the first reading, and following an incubation time of 15-30 min, 100 μl of the reference agonist (IB-MECA) at a concentration equal to the EC80 of the day of the experiment were injected onto the cell suspension containing the test compounds. The resulting emission of light was measured for the determination of antagonistic effects. Light emission for agonist and antagonist tests was recorded using a Hamamatsu FDSS-6000 reader. For agonist data, percentages of activation were calculated on the basis of the activation (luminescence data) induced by the reference agonist at a saturating concentration (EC100). For antagonist data, percentages of inhibition were calculated on the basis of the activation (luminescence data) induced by the reference agonist at a concentration equal to the EC80. The test compounds were tested as duplicate determinations at 8 concentrations of 100, 10, 1, 0.1 μM and 10, 1, 0.1, and 0.01 nM for agonist activity and 50, 5, 0.5, 0.05 μM and 5, 0.5, 0.05, and 0.005 nM for antagonist activity. Dose-response data, EC50/IC50, from test compound was analyzed with XLfit (IDBS) software.
This assay may be used to determine the IC50 value for adenosine A3 antagonists according to the invention (see Example 42).

Row | SMILES | IC50
1 | CNC(=O)[C@@]12CO[C@@H]([C@H](n3cnc4c(NCc5cccc(I)c5)ncnc43)O1)[C@@H]2N [SPN0195, (1S,3R,4R,7S)-(7-amino-3-(N6-(3-iodobenzyl)-adenin-9-yl)-2,5-dioxabicyclo[2:2:1]hept-1-yl)-N-methylcarboxamide] | 683 nM
2 | CNC(=O)[C@@]12CO[C@@H]([C@H](n3cnc4c(NCc5cccc(Br)c5)ncnc43)O1)[C@@H]2O [SPN0186, (1R,3R,4R,7S)-(7-hydroxy-3-(N6-(3-bromobenzyl)-adenin-9-yl)-2,5-dioxabicyclo[2:2:1]hept-1-yl)-N-methylcarboxamide] | 638 nM
3 | OC[C@@]12CO[C@@H]([C@H](n3cnc4c(NCc5cccc(I)c5)ncnc43)O1)[C@@H]2O [SPN0169, (1S,3R,4R,7S)-7-Hydroxy-1-hydroxymethyl-3-(N6-(3-iodobenzyl)-adenin-9-yl)-2,5-dioxabicyclo[2:2:1]heptane] | 154 nM
4 | OCC12CNC(C(n3cnc4c(NCc5cccc(I)c5)ncnc43)O1)C2O (single isomer, unassigned) [SPN0234] | 8.2 nM
5 | CNC(=O)[C@@]12CO[C@@H]([C@H](n3cnc4c(NCc5cccc(I)c5)ncnc43)O1)[C@@H]2N=[N+]=[N-] [SPN0192, (1S,3R,4R,7S)-(7-azido-3-(N6-(3-iodobenzyl)-adenin-9-yl)-2,5-dioxabicyclo[2:2:1]hept-1-yl)-N-methylcarboxamide] | 816 nM
6 | CNC(=O)[C@@]12CN[C@@H]([C@H](n3cnc4c(NCc5cccc(I)c5)ncnc43)O1)[C@@H]2O [SPN0235, (1R,3R,4R,7S)-(7-hydroxy-3-(N6-(3-iodobenzyl)-adenin-9-yl)-2-oxa-5-azabicyclo[2:2:1]hept-1-yl)-N-methylcarboxamide] | 12 nM
7 | CNC(=O)[C@]12CO[C@@H]([C@H](n3cnc4c(NCc5cccc(I)c5)nc(Cl)nc43)O1)[C@@H]2O [SPN0175, (1R,3R,4R,7S)-(7-hydroxy-3-(N6-(3-iodobenzyl)-2-chloro-adenin-9-yl)-2,5-dioxabicyclo[2:2:1]hept-1-yl)-N-methylcarboxamide] | 391 nM
8 | OC[C@@]12CO[C@@H]([C@H](n3cnc4c(NCc5cccc(I)c5)nc(Cl)nc43)O1)[C@@H]2O [SPN0174, (1S,3R,4R,7S)-7-Hydroxy-1-hydroxymethyl-3-(N6-(3-iodobenzyl)-2-chloro-adenin-9-yl)-2,5-dioxabicyclo[2:2:1]heptane] | 209 nM
9 | CNC(=O)[C@@]12CN[C@@H]([C@H](n3cnc4c(N)ncnc43)O1)[C@@H]2O [SPN0238, (1R,3R,4R,7S)-(7-hydroxy-3-(adenin-9-yl)-2-oxa-5-azabicyclo[2:2:1]hept-1-yl)-N-methylcarboxamide] | 173 nM
10 | OCC12CNC(C(n3cnc4c(NCc5cccc(I)c5)ncnc43)O1)C2O (single isomer, unassigned) [SPN0240] | 94 nM
